The source of these data is patent publication USRE48461E1, “Modulation of androgen receptor expression” (Ionis Pharmaceuticals, Inc., priority 2012, dated 2021).

Oligonucleotides are written 5' to 3', each unit as a sugar letter and its base; * is a phosphorothioate linkage, no mark a phosphodiester; rarer units and linkages stand in square brackets, end groups in braces. Plain capitals give the bases only. k = constrained ethyl (cEt); [5mC] = 5-methylcytosine; d = 2'-deoxy (DNA)

The subject of data set [1] is AR mRNA. Nature of the data set: Antisense inhibition of human AR in HuVEC cells, single concentration (electroporation, qRT-PCR RTS3559). The class given is cell-based. The essentials: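 HuVEC cells electroporated with antisense oligonucleotides at a single concentration. AR mRNA quantified by qRT-PCR using human primer-probe set RTS3559 and normalised to total RNA content by RIBOGREEN.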
Background: In qPCR the cycle at which signal appears reflects the starting amount.

In data set [2] the test system is AR mRNA. Nature of the data set: Dose-dependent antisense inhibition of human AR in HuVEC cells (electroporation, qRT-PCR RTS3559, IC50). The class given is cell-based. The conditions noted are these: HuVEC. The essentials:
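HuVEC cells dosed with antisense oligonucleotides by electroporation and treated approximately 16 hours. AR mRNA quantified by real-time qPCR with primer probe set RTS3559 and normalised to total RNA by RIBOGREEN; IC50 from dose-response.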

The mark [3] stands for this setting: Table 24, 1,000 nM oligonucleotide, electroporation, approximately 24 hours, relative to untreated control.
The mark [4] stands for this setting: Table 35, electroporation, approximately 16 hours.
[5] abbreviates: Table 29, electroporation, approximately 16 hours.
Where [6] appears, read: Table 20, 500 nM oligonucleotide, electroporation, approximately 24 hours, relative to untreated control.
The mark [7] stands for this setting: Table 33, electroporation, approximately 16 hours.
[8] abbreviates: Table 21, 500 nM oligonucleotide, electroporation, approximately 24 hours, relative to untreated control.
[9] abbreviates: Table 34, electroporation, approximately 16 hours.
Setting [10] is: Table 36, electroporation, approximately 16 hours.
[11] abbreviates: Table 30, electroporation, approximately 16 hours.

One may read the % inhibition as how much of the control response was suppressed. A low value points to a weak effect. The IC50 is the concentration at which inhibition is half-maximal. A high value points to weaker potency. For “549457 (kT*kT*kG*dA*dT*dT*dT*dA*dA*dT*dG*dG*dT*kT*kG*k[5mC]) [compound 549457]”, the “% inhibition” value in data set [1] (250 nM ASO, ~24 h, Table 7) stood at 67%; in data set [1] (500 nM ASO, electroporation, ~24 h, Table 2) it was 98%; in data set [1] (500 nM ASO, ~24 h, Table 5), 98%. Further, the “percent inhibition of AR” value in data set [2] (31.25 nM, ~16 h, Table 6) was found to be 40%; in data set [2] (31.25 nM, ~16 h, Table 8) it was 34%; in data set [2] (55.6 nM, ~16 h, Table 4), 70%; in data set [2] (62.5 nM, ~16 h, Table 6) it was 57%; in data set [2] (62.5 nM, ~16 h, Table 8), 44%; in data set [2] (125.0 nM, ~16 h, Table 6) it was 78%. Further, the “percent inhibition of AR” value in data set [2] (125.0 nM, ~16 h, Table 8) is 75%; in data set [2] (166.7 nM, ~16 h, Table 4), 95%; in data set [2] (500.0 nM, ~16 h, Table 4) it was 99%; in data set [2] (500.0 nM, ~16 h, Table 6), 96%; in data set [2] (500.0 nM, ~16 h, Table 8), 93%; in data set [2] (1000.0 nM, ~16 h, Table 6), 96%. In addition, the “percent inhibition of AR” value in data set [2] (1000.0 nM, ~16 h, Table 8) is on record as 96%; in data set [2] (1500.0 nM, ~16 h, Table 4), 99%. The IC50 turned out to be 18 nM in data set [2] (~16 h, Table 4); 30 nM in data set [2] (~16 h, Table 6); 60 nM in data set [2] (~16 h, Table 8).
As for “584167 (kG*kA*kG*dT*dG*dT*dT*dA*dA*dT*dG*dA*dA*kG*kA*k[5mC]; antisense) [compound 584167]”, in data set [1] (setting [3]), the “% inhibition” value was determined as 78%. Further, in data set [2] (setting [4]), the “percent inhibition of AR, 46.9 nM” value is on record as 13%; the “percent inhibition of AR, 187.5 nM” value is given as 45%; the “percent inhibition of AR, 750.0 nM” value came out at 76%; the “percent inhibition of AR, 3000.0 nM” value amounted to 93%. In addition, half-maximal inhibition in data set [2] (setting [4]) (IC50) required 210 nM.
For the substance “583613 (antisense kG*k[5mC]*kA*dA*dT*dG*dT*dG*d[5mC]*dA*dG*d[5mC]*dT*kA*kG*k[5mC]) [compound 583613]”, the “% inhibition” value in data set [1] (500 nM ASO, ~24 h, Table 17) was 51%. In data set [2] (setting [5]), the “percent inhibition of AR, 46.9 nM” value is reported as 24%; the “percent inhibition of AR, 187.5 nM” value was found to be 60%; the “percent inhibition of AR, 750.0 nM” value stood at 70%; the “percent inhibition of AR, 3000.0 nM” value amounted to 75%. Further, the concentration for half-maximal inhibition (IC50) in data set [2] (setting [5]) is 190 nM.
Turning to “583862 (kG*k[5mC]*kT*d[5mC]*dT*dT*dG*d[5mC]*d[5mC]*dT*dG*d[5mC]*dG*k[5mC]*kT*kG; antisense) [compound 583862]”, in data set [1] (setting [6]), the “% inhibition” value came out at 32%. Also, in data set [2] (setting [7]), the “percent inhibition of AR, 46.9 nM” value amounted to 15%; the “percent inhibition of AR, 187.5 nM” value came out at 37%; the “percent inhibition of AR, 750.0 nM” value was 64%; the “percent inhibition of AR, 3000.0 nM” value amounted to 79%. Also, 410 nM corresponded to half-maximal inhibition in data set [2] (setting [7]) (IC50).
For “583932 (kT*k[5mC]*kT*d[5mC]*d[5mC]*dA*dG*d[5mC]*dT*dT*dG*dA*dT*kG*k[5mC]*kG; antisense) [compound 583932]”, in data set [1] (setting [8]), the “% inhibition” value is listed as 39%. Further, in data set [2] (setting [9]), the “percent inhibition of AR, 46.9 nM” value amounted to 9%; the “percent inhibition of AR, 187.5 nM” value is 35%; the “percent inhibition of AR, 750.0 nM” value worked out at 64%; the “percent inhibition of AR, 3000.0 nM” value is given as 81%. In addition, in data set [2] (setting [9]), it took 380 nM to reach half-maximal inhibition (IC50).
On to “584179 (kA*kT*kG*dA*dG*dT*d[5mC]*d[5mC]*dT*d[5mC]*dA*dG*dA*kA*kT*k[5mC]; antisense) [compound 584179]”, for which the “% inhibition” value in data set [1] (setting [3]) amounted to 74%. In data set [2] (setting [4]), the “percent inhibition of AR, 46.9 nM” value is given as 1%; the “percent inhibition of AR, 187.5 nM” value worked out at 25%; the “percent inhibition of AR, 750.0 nM” value was 62%; the “percent inhibition of AR, 3000.0 nM” value is given as 87%. The substance further yielded a half-maximal inhibitory concentration (IC50) in data set [2] (setting [4]) of 440 nM.
As to “549358 (kA*kT*kG*dG*dT*dG*d[5mC]*dT*dG*dG*d[5mC]*d[5mC]*dT*k[5mC]*kG*k[5mC]; antisense) [compound 549358]”, the “% inhibition” value in data set [1] (500 nM ASO, electroporation, ~24 h, Table 1) worked out at 91%. For the same substance, the “percent inhibition of AR” value in data set [2] (55.6 nM, ~16 h, Table 3) stood at 29%; in data set [2] (166.7 nM, ~16 h, Table 3), 63%; in data set [2] (500.0 nM, ~16 h, Table 3), 85%; in data set [2] (1500.0 nM, ~16 h, Table 3), 95%. The substance further had a half-inhibitory concentration (IC50) in data set [2] (~16 h, Table 3) of 141 nM.
On to “583649 (antisense kA*kG*kG*d[5mC]*dT*d[5mC]*dA*d[5mC]*dA*dG*dT*d[5mC]*dT*kG*kT*k[5mC]) [compound 583649]”, for which the “% inhibition” value in data set [1] (500 nM ASO, ~24 h, Table 17) was 46%. Besides, in data set [2] (setting [5]), the “percent inhibition of AR, 46.9 nM” value worked out at 28%; the “percent inhibition of AR, 187.5 nM” value was 50%; the “percent inhibition of AR, 750.0 nM” value came to 68%; the “percent inhibition of AR, 3000.0 nM” value was 84%. In data set [2] (setting [5]), the IC50 is 200 nM.
For the substance “583919 (kG*kT*kA*dG*dT*d[5mC]*dG*d[5mC]*dG*dA*d[5mC]*dT*d[5mC]*kT*kG*kG; antisense) [compound 583919]”, the “% inhibition” value in data set [1] (setting [8]) is reported as 55%. In data set [2] (setting [7]), the “percent inhibition of AR, 46.9 nM” value worked out at 27%; the “percent inhibition of AR, 187.5 nM” value worked out at 60%; the “percent inhibition of AR, 750.0 nM” value came out at 85%; the “percent inhibition of AR, 3000.0 nM” value worked out at 91%. In data set [2] (setting [7]), this substance came in with an IC50 of 140 nM.
Consider “583868 (kA*k[5mC]*kT*d[5mC]*dA*dG*d[5mC]*dA*dG*dT*dA*dT*d[5mC]*kT*kT*k[5mC]; antisense) [compound 583868]”, for which, in data set [1] (setting [6]), the “% inhibition” value is 34%. In addition, in data set [2] (setting [7]), the “percent inhibition of AR, 46.9 nM” value was 19%; the “percent inhibition of AR, 187.5 nM” value stood at 31%; the “percent inhibition of AR, 750.0 nM” value is listed as 59%; the “percent inhibition of AR, 3000.0 nM” value is recorded as 81%. The IC50 in data set [2] (setting [7]) amounted to 410 nM.
“584361 (k[5mC]*kT*kT*d[5mC]*dA*dT*dT*dG*d[5mC]*dA*dG*dG*dT*k[5mC]*kT*kG; antisense) [compound 584361]”: in data set [1] (1,000 nM ASO, ~24 h, Table 26), the “% inhibition” value stood at 61%. Further, in data set [2] (setting [10]), the “percent inhibition of AR, 46.9 nM” value was 0%; the “percent inhibition of AR, 187.5 nM” value is listed as 18%; the “percent inhibition of AR, 750.0 nM” value worked out at 71%; the “percent inhibition of AR, 3000.0 nM” value is 87%. The same substance came in with an IC50 in data set [2] (setting [10]) of 410 nM.
For “584165 (kT*k[5mC]*kA*dA*dT*d[5mC]*dT*dA*dG*dA*dT*dA*d[5mC]*k[5mC]*kA*kT; antisense) [compound 584165]”, the “% inhibition” value in data set [1] (setting [3]) was 70%. In data set [2] (setting [10]), the “percent inhibition of AR, 46.9 nM” value came out at 12%; the “percent inhibition of AR, 187.5 nM” value was 34%; the “percent inhibition of AR, 750.0 nM” value is on record as 66%; the “percent inhibition of AR, 3000.0 nM” value came to 89%. Moreover, the 50% inhibitory concentration (IC50) in data set [2] (setting [10]) came out at 300 nM.
Consider “583738 (antisense kG*kT*kT*d[5mC]*dT*dG*dG*dA*dT*d[5mC]*dA*d[5mC]*dT*kT*k[5mC]*kG) [compound 583738]”, for which the “% inhibition” value in data set [1] (500 nM ASO, ~24 h, Table 18) was 36%. Further, in data set [2] (setting [11]), the “percent inhibition of AR, 46.9 nM” value is listed as 16%; the “percent inhibition of AR, 187.5 nM” value worked out at 40%; the “percent inhibition of AR, 750.0 nM” value worked out at 56%; the “percent inhibition of AR, 3000.0 nM” value is 71%. Besides, the IC50 in data set [2] (setting [11]) amounted to 510 nM.
